Test results taken from patent US12377092B2, “Polycomb inhibitors and uses thereof” (FONDAZIONE ISTITUTO FIRC DI ONCOLOGIA MOLECOLARE (IFOM), priority 2017, dated 2025).
Where two headings read alike, the source gives them in different places.

Tests used:
[1] = test system: VE-cadherin; assay: Real time analysis of VE-cadherin transcript, CCM3 knock out cells; assay type: cell-based, mouse; settings: PTC209
Experimental: (§1) RNA extraction was performed both with (A) RNeasy kits (Promega) or (B) RNAeasy Mini Kit (QIAGEN). The latter allows also the extraction of proteins from the same sample. The RNA (500 ng) was reverse transcribed with random hexamers (High Capacity cDNA Archive kits; Applied Biosystems) in a final volume of 30 uL. Reaction were made with a thermocycler (Eppendorf) 10 min at 25° C. followed by 2 hours at 37° C. cDNA (5 ng) was amplified in triplicate in a reaction volume of 15 uL using TaqMan Gene Expression Assays (Applied Biosystems) in a ABI/Prism 7900 HT using a pre PCR step of 10 min at 95° C., followed by 40 cycles of 15 seconds at 95° C. and 60 seconds at 60° C. For each sample, the expression level was determined with the comparative threshold cycle (Ct) method, and normalized to the housekeeping genes encoding 18S, glyceraldehyde-3-phosphate dehydrogenase (GAPDH) and hypoxanthine-guanine phosphoribosyltransferase (hprt1). Ct or threshold cycle, represents the PCR cycle at which an increase in reporter fluorescence above a base-line signal can first be detect.
Western blot and real time analysis of VE-cadherin were performed in parallel to confirm the reduction of VE-cadherin observed by immunofluorescence (FIG. 8A-C). VE-cadherin protein and transcript levels, as expected, were reduced in CCM3 knock out cells compare to wild type, as already shown (Bravi et al., 2015).

[2] = test system: Axin2, Serpin1, Id1, Hes1 and Dll4; assay: Real-time PCR of target genes of β-catenin, TGFβ and Delta-Notch pathways, wild type and CCM3 knock out cells; assay type: cell-based, mouse; settings: PTC209 72 hours
Experimental: as §1
To perform these experiments, wild type and CCM3 knock out cells were treated with PTC209 with the same experimental conditions described before, and subsequently lysed for gene expression analysis.
Axin2 was checked as evidence of β-catenin pathway activation (FIG. 25A), Serpin1 and Id1 for TGFβ signalling (FIG. 25B), while Hes1 and Dll4 for Notch pathway activation (FIG. 25C).

[3] = test system: EndMT markers (Klf4, Sca1 and Fsp1); assay: Immunofluorescence analysis of EndMT markers, CCM1 knock out cells; assay type: cell-based, mouse; settings: CCM1 knockout cells; PTC209 vs DMSO
Experimental: Treatment with PTC209 was performed with the same experimental conditions used for CCM3 model. After treatment cells were analysed by western blot (FIG. 9), real time (FIG. 10) and immunofluorescence (FIG. 11) analysis. […] This observation resembled what was previously observed for human patients as well as for CCM3 mouse model, namely that mutation in Ccm3 led to a more severe phenotype, with higher risk of cerebral haemorrhage and more severe malformations, compare to patients with mutation in Ccm1 and Ccm2 (Denier et al., 2006).

[4] = test system: CCM1 knock out cells; assay: Immunofluorescence of junction organisation (VE-cadherin, PECAM1), wild type and CCM1 knock out cells; assay type: cell-based, mouse
Text: Also for CCM1 model, the inventors tested the effect of Bmi1 inhibition on junction organisation. The inventors repeated PTC209-treatment on CCM1 model with the same experimental conditions described before, and the inventors analysed VE-cadherin and PECAM1 expression by immunofluorescence analysis (FIG. 12) in parallel with real time analysis (FIG. 13).

[5] = test system: EndMT markers (Klf4, Sca1 and Fsp1); assay type: cell-based, mouse; settings: 72 hours
Experimental: Cells were seeded 6.3×10^4 cells/cm^2. The day after, PTC209 and UNC1999 were added to the confluent cells. Drugs were left for one or three days depending on the aim of the experiment. Final concentrations used for the two drugs were: 1 uM PTC209 and 5 uM UNC1999.
as §1

[6] = target: T1, Bmi1 (Mus musculus, UniProt P25916); assay: Western blot analysis of Bmi1, wild type and CCM3 knock out immortalized lung endothelial cells; assay type: cell-based; settings: 24 hours of treatment, 1 uM PTC209 vs DMSO
T1 construct: western blot analysis of Bmi1 on lysates from confluent wild type (WT) and CCM3 knockout (CCM3-KO) cells treated with PTC209; endogenous in cells; host or cells: immortalized mouse lung endothelial cells, wild type and CCM3 knock out (VECPAC/CCM3 fl/fl, TAT-Cre)
T1 sequence (P25916 1-324): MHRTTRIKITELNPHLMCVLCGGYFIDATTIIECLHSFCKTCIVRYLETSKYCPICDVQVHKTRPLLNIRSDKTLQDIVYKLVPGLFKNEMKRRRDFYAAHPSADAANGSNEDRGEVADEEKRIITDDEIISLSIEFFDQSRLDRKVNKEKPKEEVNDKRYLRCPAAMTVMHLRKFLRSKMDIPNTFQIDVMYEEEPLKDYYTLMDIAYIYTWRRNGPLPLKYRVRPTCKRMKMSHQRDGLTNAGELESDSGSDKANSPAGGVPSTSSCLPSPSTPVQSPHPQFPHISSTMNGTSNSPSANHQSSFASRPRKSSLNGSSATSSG
Experimental: Confluent cells were lysed with boiling modified Laemi sample Buffer (2% SDS, 20% glycerol, and 125 mM Tris-HCl, pH 6.8). Lysates were incubated for 10 minutes at 100° C. to allow proteins denaturation. Protein concentration was estimated using the BCA Protein Assay Kit (Pierce). Equal amount of proteins was loaded on a gel, separated by SDS-PAGE and transferred to a Protran Nitrocellulose Membrane (Whatman) 0.2 um pores. The membranes were blocked for 1 hour at RT in Tris Buffered Saline (TBS: NaCl 150 mM, Tris-HCl 10 mM pH 7.4) plus 0.1% Tween-20 containing 5% BSA or milk. The membranes were incubated with primary antibodies diluted in TBST (TBS plus 0.1% Tween-20) containing 5% of either BSA or milk overnight at 4° C. Next, membranes were rinsed three times with TBST for 5 minutes each and incubated for 45 minutes at RT with HRP-linked secondary antibodies diluted in TBST containing 5% BSA/milk. Membranes were rinsed three times with TBST for 5 minutes each and specific bindings were detected by enhanced chemiluminescence (ECL) system (Amersham Bioscience) using ChemiDoc XRS gel imaging system (Bio-Rad).
CCM3 knock out cells were immortalized lung endothelial cells derived from VECPAC/CCM3^fl/fl mice, treated with TAT-Cre recombinase. […] As control the same cell line without TAT-Cre treatment were used. […]

[7] = CCM3 knock out cells (pathological conditions)
[8] = CCM3 knock out cells (pathological)
[9] = wild type cells (physiological)

With `COc1cc(Br)c(Nc2nc(-c3c(C)nc4ncccn34)cs2)c(Br)c1` [PTC209, N-(2,6-dibromo-4-methoxyphenyl)-4-(2-methylimidazo[1,2-a]pyrimidin-3-yl)thiazol-2-amine] the “VE-cadherin transcript level (real time analysis)” value [1] was “did not rescue”, the “Hes1 transcript (Notch pathway)” value [2, 7] was “downregulated” and the “Serpin1 transcript (TGFβ signalling)” value [2, 7] was “upregulated”. The “Axin2 transcript (β-catenin pathway)” value [2, 8] was “downregulation”, the “Id1 transcript (TGFβ signalling)” value [2, 8] was “downregulation” and the “Axin2 transcript (β-catenin pathway)” value [2, 9] was “downregulation”. For the same compound, the “Id1 transcript (TGFβ signalling)” value [2, 9] was “downregulation”, the “upregulation of Klf4, Sca1 and Fsp1 (relative fluorescence intensity)” value [3] was “inhibited” and the “junction organisation (VE-cadherin, PECAM1 immunostaining)” value ([4]; CCM1 knock out cells) was “visible reorganisation of junctions”. The “junction organisation (VE-cadherin, PECAM1 immunostaining)” value ([4]; wild type cells, CCM1 model) was “remained unchanged”, the “Klf4 transcript (real time analysis)” value ([5]; CCM1 knock out cells) was “downregulated” and the “Sca1 and Fsp1 transcripts (real time analysis)” value ([5]; CCM1 knock out cells) was “downregulated”. The “EndMT markers (Klf4, Sca1, Fsp1) transcript levels (real time analysis)” value ([5]; CCM1 knock out cells, vs DMSO) was “strong inhibition”, the “Klf4 transcript (real time analysis)” value ([5]; wild type cells (physiological condition), CCM1 model) was “not downregulated” and the “Bmi1 protein expression (western blot)” value ([6]; CCM3 knock out cells) was “downregulation of Bmi1”. For the same compound, the “Bmi1 protein expression (western blot)” value ([6]; wild type cells) was “downregulation of Bmi1”.
